Experiment [1] deals with 60 clinical P. aeruginosa isolates. As to the kind of experiment: Antibiotic susceptibility testing, NEG MIC Type 30 panel on MicroScan WalkAway-96 SI, MICs interpreted according to NCCLS guidelines. Format: cell-based, Pseudomonas aeruginosa. The note with it: for MIC: Pseudomonas aeruginosa, read-out: 60 MIC. From the text:
The wild-type reference strain P. aeruginosa PAO1 was obtained from the ATCC (AT47085). The other P. aeruginosa strains were collected from patients at the Robert Bosch Hospital in Stuttgart, Germany. They were recovered from respiratory samples (n=51), swabs (n=5), urine (n=2) and faeces (n=2). All isolates were identified with the API 20NE system (bioMerieux, Marcy l'Etoile, France) and the NEG Breakpoint Combo Type 30 panel on the MicroScan WalkAway®-96 SI system (Dade Behring, Liederbach, Germany). All bacterial strains were either routinely cultured at 37° C. on Mueller-Hinton (MH) agar or grown in Luria Bertani broth (LB).
(§1) The antibiotic susceptibility was determined with the NEG MIC Type 30 panel on the MicroScan WalkAway®-96 SI system. The MICs were interpreted according to the NCCLS guidelines.
The test collective of P. aeruginosa isolates was recovered from three intensive care units (ICU) or other hospital wards as far as an unusual multidrug resistance was observed. […] 4.

The subject of experiment [2] is 3 consecutive Pseudomonas aeruginosa isolates from the same patient. As to the kind of experiment: Phenotypic susceptibility profile of 3 consecutive isolates from the same patient. The class given is cell-based. Conditions: S/R phenotype. The procedure:
as §1

Experiment [3] deals with 60 clinical P. aeruginosa isolates. Set-up: species or system Pseudomonas aeruginosa. The note with it: predicted from mutations and resistance genes found by array in 60 isolates. As to the method: The 60 P. aeruginosa isolates were tested with the array applying the same hybridization conditions. Tab.
In order to compare genotype and phenotype based resistance profiles, we calculated a cumulative resistance rate against different groups of antibiotics based on the array data (Tab. 6).

[4] abbreviates: Table 3, P. aeruginosa test collective.
[5] abbreviates: Table 6, MIC tied to the resistant isolates, NCCLS interpretation.
The mark [6] stands for this setting: Table 6, phenotypic resistance rate.

Like-named read-outs stand apart in the source and are kept apart here.

Take `CC(C)(O/N=C(\C(=O)N[C@@H]1C(=O)N2C(C(=O)[O-])=C(C[n+]3ccccc3)CS[C@H]12)c1csc(N)n1)C(=O)O` [Ceftazidim, ceftazidime]: the “% of resistant isolates out of 60” value in experiment [1] (setting [4]) and in experiment [1] (setting [6]) was 33% each time. The “Number of resistant isolates out of 60” value came out at 20 in experiment [1] (setting [4]) and 20 in experiment [1] (Table 6, phenotypic resistance). For the same compound, the “60 MIC” value in experiment [1] (setting [5]) was over 16 µg/mL.
As usually defined, the MIC is the least concentration at which growth counts as inhibited. Consider `NC[C@H]1O[C@H](O[C@H]2[C@H](O)[C@@H](O[C@H]3O[C@H](CO)[C@@H](O)[C@H](N)[C@H]3O)[C@H](N)C[C@@H]2N)[C@H](N)C[C@@H]1O` [Tobramycin, tobramycin], for which the MIC in experiment [1] was over 8 µg/mL. The “% of resistant isolates out of 60” value in experiment [1] (setting [4]) and in experiment [1] (setting [6]) was 10% throughout. The “Number of resistant isolates out of 60” value is 6 in experiment [1] (setting [4]) and 6 in experiment [1] (Table 6, phenotypic resistance). Also, the “Susceptibility profile, Isolate 2” value in experiment [2] (collected one week after the first isolate) is given as “susceptible”. Also, in experiment [2] (first isolate), the “Susceptibility profile, Isolate 1” value is “susceptible”. In addition, the “Susceptibility profile, Isolate 3” value in experiment [2] (last of three isolates collected within three weeks) is “resistance”.
For the compound `C[C@@H](O)[C@H]1C(=O)N2C(C(=O)O)=C(SCCN=CN)C[C@H]12` [Imipenem, imipenem], the MIC in experiment [1] is over 8 µg/mL. Moreover, the “% of resistant isolates out of 60” value in experiment [1] (setting [4]) and in experiment [1] (setting [6]) was 45% in each case. The “Number of resistant isolates out of 60” value in experiment [1] (setting [4]) was 27; in experiment [1] (Table 6, phenotypic resistance) it was 27. Besides, the susceptibility rate result in experiment [1] (test collective of isolates) is reported as “less than 55%”.
As to `CCN1CCN(C(=O)N[C@@H](C(=O)N[C@@H]2C(=O)N3[C@@H]2SC(C)(C)[C@@H]3C(=O)O)c2ccccc2)C(=O)C1=O` [Piperacillin, piperacillin], the MIC in experiment [1] (setting [5]) was over 64 µg/mL. The “% of resistant isolates out of 60” value in experiment [1] (setting [4]) and in experiment [1] (setting [6]) was 35% each time. In addition, the “Number of resistant isolates out of 60” value in experiment [1] (setting [4]) came to 21; in experiment [1] (Table 6, phenotypic resistance) it was 21. In experiment [3], the “Cumulative resistance predicttion deduced from array” value is given as 38%.
In the case of `C[C@H]1COc2c(N3CCN(C)CC3)c(F)cc3c(=O)c(C(=O)O)cn1c23` [Levofloxacin, levofloxacin], the minimal inhibitory concentration (MIC) in experiment [1] was over 4 µg/mL. Also, the “% of resistant isolates out of 60” value in experiment [1] (setting [4]) and in experiment [1] (setting [6]) was 43% each time. The “Number of resistant isolates out of 60” value in experiment [1] (setting [4]) turned out to be 26; in experiment [1] (Table 6, phenotypic resistance) it was 26.
In the case of gentamicin, the “% of resistant isolates out of 60” value in experiment [1] (setting [4]) and in experiment [1] (setting [6]) was 37% throughout. In addition, the “Number of resistant isolates out of 60” value in experiment [1] (setting [4]) is 22; in experiment [1] (Table 6, phenotypic resistance) it was 22. Also, the “60 MIC” value in experiment [1] (setting [5]) was over 8 µg/mL. Besides, the “Cumulative resistance predicttion deduced from array” value in experiment [3] is listed as 45%.
As to `NCC[C@H](O)C(=O)N[C@@H]1C[C@H](N)[C@@H](O[C@H]2O[C@H](CN)[C@@H](O)[C@H](O)[C@H]2O)[C@H](O)[C@H]1O[C@H]1O[C@H](CO)[C@@H](O)[C@H](N)[C@H]1O` [Amikacin, amikacin], the minimal inhibitory concentration (MIC) in experiment [1] is over 32 µg/mL. Besides, the “% of resistant isolates out of 60” value in experiment [1] (setting [4]) and in experiment [1] (setting [6]) was 17% throughout. Besides, the “Number of resistant isolates out of 60” value in experiment [1] (setting [4]) was 10; in experiment [1] (Table 6, phenotypic resistance) it was 10.
colistin: the “% of resistant isolates out of 60” value in experiment [1] (setting [4]) and in experiment [1] (setting [6]) was 0% throughout. For the same compound, the “Number of resistant isolates out of 60” value in experiment [1] (setting [4]) was 0; in experiment [1] (Table 6, phenotypic resistance), 0. For the same compound, the resistance rate in experiment [1] (test collective of isolates) is given as 0%. Besides, in experiment [3], the “Cumulative resistance predicttion deduced from array” value is 0%.
